Measured values published in ChEMBL document CHEMBL1126615, “Structure-activity relationships in prazosin-related compounds. 2. Role of the piperazine ring on alpha-blocking activity” (J Med Chem, 1993).

What was measured:
[1] = target: T1, Adrenergic receptor alpha-1 (Rattus norvegicus, UniProt P15823+P23944+P43140); assay: Alpha-1 Adrenoceptor blocking activity as antagonism of norepinephrine-induced contractions of epididymal portion of rat vas deferens; format: functional, tissue-based
T1 sequence (P15823 whole entry): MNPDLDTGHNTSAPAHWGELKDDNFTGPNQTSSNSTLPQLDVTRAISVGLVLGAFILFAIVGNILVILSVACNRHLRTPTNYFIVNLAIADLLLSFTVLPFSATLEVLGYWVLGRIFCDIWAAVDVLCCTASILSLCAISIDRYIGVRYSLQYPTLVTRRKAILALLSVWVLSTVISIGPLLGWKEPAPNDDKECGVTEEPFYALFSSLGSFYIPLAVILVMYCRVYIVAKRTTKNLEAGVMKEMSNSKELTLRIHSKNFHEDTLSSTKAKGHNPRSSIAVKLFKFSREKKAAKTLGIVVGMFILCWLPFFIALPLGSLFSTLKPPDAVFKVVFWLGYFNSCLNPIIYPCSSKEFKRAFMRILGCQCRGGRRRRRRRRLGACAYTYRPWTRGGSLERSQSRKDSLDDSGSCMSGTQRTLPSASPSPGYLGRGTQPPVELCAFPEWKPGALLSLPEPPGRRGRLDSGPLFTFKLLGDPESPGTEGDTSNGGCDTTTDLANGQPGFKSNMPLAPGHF
T1 sequence (P23944 whole entry): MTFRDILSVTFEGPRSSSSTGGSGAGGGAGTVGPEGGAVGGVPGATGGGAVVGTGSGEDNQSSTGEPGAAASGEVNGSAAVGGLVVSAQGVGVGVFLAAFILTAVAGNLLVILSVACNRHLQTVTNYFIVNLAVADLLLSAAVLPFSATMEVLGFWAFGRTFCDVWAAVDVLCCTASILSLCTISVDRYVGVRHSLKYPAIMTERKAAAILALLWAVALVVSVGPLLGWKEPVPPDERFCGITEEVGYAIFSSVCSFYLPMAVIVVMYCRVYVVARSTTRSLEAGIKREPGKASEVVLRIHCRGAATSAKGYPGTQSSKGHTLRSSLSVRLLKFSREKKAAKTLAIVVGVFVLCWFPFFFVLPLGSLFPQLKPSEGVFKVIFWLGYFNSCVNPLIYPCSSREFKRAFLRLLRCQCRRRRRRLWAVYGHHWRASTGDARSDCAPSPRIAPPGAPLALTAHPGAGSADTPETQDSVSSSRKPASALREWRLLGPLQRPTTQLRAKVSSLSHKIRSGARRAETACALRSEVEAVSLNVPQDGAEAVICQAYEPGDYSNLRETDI
T1 sequence (P43140 whole entry): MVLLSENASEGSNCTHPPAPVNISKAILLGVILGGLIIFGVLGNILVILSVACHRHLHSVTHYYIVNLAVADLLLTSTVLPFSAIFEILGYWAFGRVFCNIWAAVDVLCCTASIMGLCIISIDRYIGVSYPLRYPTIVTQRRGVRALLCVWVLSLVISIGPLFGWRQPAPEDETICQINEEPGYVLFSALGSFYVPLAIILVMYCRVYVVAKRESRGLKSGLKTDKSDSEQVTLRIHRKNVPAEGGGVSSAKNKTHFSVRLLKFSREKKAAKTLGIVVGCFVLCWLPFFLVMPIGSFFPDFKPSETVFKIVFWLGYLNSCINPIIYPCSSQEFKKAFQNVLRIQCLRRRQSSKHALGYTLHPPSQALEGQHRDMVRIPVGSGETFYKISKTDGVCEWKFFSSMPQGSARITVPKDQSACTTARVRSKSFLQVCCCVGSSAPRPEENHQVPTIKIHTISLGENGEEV

[2] = The alpha1/alpha2 selectivity ratio is the antilog of the difference between pA2 values at alpha1 and alpha-2 adrenoceptor; format: functional
[3] = target: T2, Adrenergic receptor alpha-2 (Rattus norvegicus, UniProt P22086+P19328+P22909); assay: Alpha-2 Adrenoceptor blocking activity as antagonism of clonidine-induced depression of field-stimulated prostatic rat vas deferens; format: functional, tissue-based
T2 sequence (P22086 whole entry): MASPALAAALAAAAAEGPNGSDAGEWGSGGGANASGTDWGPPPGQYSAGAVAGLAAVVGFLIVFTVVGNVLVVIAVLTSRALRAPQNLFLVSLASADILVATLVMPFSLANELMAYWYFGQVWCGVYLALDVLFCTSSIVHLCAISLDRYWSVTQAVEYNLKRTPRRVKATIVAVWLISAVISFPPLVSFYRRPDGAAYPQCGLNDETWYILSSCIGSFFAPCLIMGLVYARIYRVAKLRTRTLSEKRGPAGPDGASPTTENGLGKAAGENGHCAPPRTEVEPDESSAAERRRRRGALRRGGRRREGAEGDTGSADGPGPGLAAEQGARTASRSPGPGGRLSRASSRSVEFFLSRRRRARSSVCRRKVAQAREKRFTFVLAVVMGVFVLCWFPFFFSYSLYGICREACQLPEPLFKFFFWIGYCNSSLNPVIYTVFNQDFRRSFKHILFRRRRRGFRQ
T2 sequence (P19328 whole entry): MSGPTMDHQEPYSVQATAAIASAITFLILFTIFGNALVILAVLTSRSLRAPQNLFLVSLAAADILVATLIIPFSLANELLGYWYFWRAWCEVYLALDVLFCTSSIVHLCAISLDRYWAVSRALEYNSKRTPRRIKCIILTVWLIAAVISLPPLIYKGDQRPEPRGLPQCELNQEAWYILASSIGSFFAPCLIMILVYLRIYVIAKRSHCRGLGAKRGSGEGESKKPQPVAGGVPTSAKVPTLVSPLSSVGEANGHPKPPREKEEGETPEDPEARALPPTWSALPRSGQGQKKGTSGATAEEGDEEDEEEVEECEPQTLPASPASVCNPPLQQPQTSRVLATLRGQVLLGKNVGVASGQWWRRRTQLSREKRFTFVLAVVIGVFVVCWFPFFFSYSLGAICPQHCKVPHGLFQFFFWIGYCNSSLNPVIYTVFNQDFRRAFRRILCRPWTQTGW
T2 sequence (P22909 whole entry): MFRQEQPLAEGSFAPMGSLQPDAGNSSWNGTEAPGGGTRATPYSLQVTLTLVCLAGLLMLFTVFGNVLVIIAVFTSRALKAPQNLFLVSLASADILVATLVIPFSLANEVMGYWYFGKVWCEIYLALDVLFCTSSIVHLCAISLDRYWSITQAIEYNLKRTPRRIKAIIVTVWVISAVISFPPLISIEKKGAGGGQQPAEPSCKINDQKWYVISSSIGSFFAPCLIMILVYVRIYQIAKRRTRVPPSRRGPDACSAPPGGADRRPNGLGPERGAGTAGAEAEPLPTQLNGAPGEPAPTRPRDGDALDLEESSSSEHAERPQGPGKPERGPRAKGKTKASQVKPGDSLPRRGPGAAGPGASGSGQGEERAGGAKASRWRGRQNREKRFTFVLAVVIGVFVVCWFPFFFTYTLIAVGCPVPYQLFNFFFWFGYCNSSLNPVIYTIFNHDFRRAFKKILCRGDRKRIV

| Compound | pA2 [1] | pA2 [3] | Selectivity ratio [2] |
| --- | --- | --- | --- |
| COc1cc2nc(N(C)CCCCCCN(C)C(=O)c3ccco3)nc(N)c2cc1OC | – | – | 120 |
| COc1cc2nc(NC3CCCCC3NC(=O)c3ccco3)nc(N)c2cc1OC (cis isomer) [listing 2 of 2 here] | – | – | 0.6 |
| COc1cc2nc(N(C)[C@@H]3CCCCC3N(C)C(=O)c3ccco3)nc(N)c2cc1OC (stereo in doubt; 5) [listing 2 of 2 here] | – | – | 2.5 |
| COc1cc2nc(N(C)[C@@H]3CCCCC3N(C)C(=O)c3ccco3)nc(N)c2cc1OC (stereo in doubt; 6) [listing 2 of 2 here] | – | – | 1.2 |
| COc1cc2nc(N3CCN(C(=O)c4ccco4)C(C)[C@H]3C)nc(N)c2cc1OC (stereo in doubt; 9) [listing 2 of 2 here] | – | – | 220 |
| COc1cc2nc(N3CCN(C(=O)c4ccco4)C(C)[C@H]3C)nc(N)c2cc1OC (stereo in doubt; 10) [listing 2 of 2 here] | – | – | 180 |
| CCC1[C@@H](CC)N(c2nc(N)c3cc(OC)c(OC)cc3n2)CCN1C(=O)c1ccco1 (stereo in doubt; 11) [listing 2 of 2 here] | – | – | 440 |
| CCC1[C@@H](CC)N(c2nc(N)c3cc(OC)c(OC)cc3n2)CCN1C(=O)c1ccco1 (stereo in doubt; 12) [listing 2 of 2 here] | – | – | 110 |
| COc1cc2nc(NC3CCCCC3NC(=O)c3ccco3)nc(N)c2cc1OC (trans isomer) [listing 2 of 2 here] | – | – | 11 |

Now from value to compound, other results behind:

| pA2 [1] | pA2 [3] | Compound | Selectivity ratio [2] |
| --- | --- | --- | --- |
| 8.61 | 5.23 | COc1cc2nc(N3CCN(C(=O)c4ccco4)C(C)C3)nc(N)c2cc1OC (stereo not drawn) | 2100 |
| 8.13 | 5.94 | COc1cc2nc(N3CCN(C(=O)c4ccco4)C[C@H]3C)nc(N)c2cc1OC | 150 |
| 5.74 | 5.96 | COc1cc2nc(NC3CCCCC3NC(=O)c3ccco3)nc(N)c2cc1OC (cis isomer) [listing 1 of 2 here] | – |
| 5.8 | 5.41 | COc1cc2nc(N(C)[C@@H]3CCCCC3N(C)C(=O)c3ccco3)nc(N)c2cc1OC (stereo in doubt; 5) [listing 1 of 2 here] | – |
| 5.64 | 5.54 | COc1cc2nc(N(C)[C@@H]3CCCCC3N(C)C(=O)c3ccco3)nc(N)c2cc1OC (stereo in doubt; 6) [listing 1 of 2 here] | – |
| 8.75 | 6.41 | COc1cc2nc(N3CCN(C(=O)c4ccco4)C(C)[C@H]3C)nc(N)c2cc1OC (stereo in doubt; 9) [listing 1 of 2 here] | – |
| 7.12 | 4.86 | COc1cc2nc(N3CCN(C(=O)c4ccco4)C(C)[C@H]3C)nc(N)c2cc1OC (stereo in doubt; 10) [listing 1 of 2 here] | – |
| 8.55 | 5.91 | CCC1[C@@H](CC)N(c2nc(N)c3cc(OC)c(OC)cc3n2)CCN1C(=O)c1ccco1 (stereo in doubt; 11) [listing 1 of 2 here] | – |
| 7.09 | 5.05 | CCC1[C@@H](CC)N(c2nc(N)c3cc(OC)c(OC)cc3n2)CCN1C(=O)c1ccco1 (stereo in doubt; 12) [listing 1 of 2 here] | – |
| – | 5.08 | COc1cc2nc(N3CCN(C(=O)c4ccco4)C4CCCC[C@@H]43)nc(N)c2cc1OC (stereo in doubt; 13) | – |
| – | 5.15 | COc1cc2nc(N3CCN(C(=O)c4ccco4)C4CCCC[C@@H]43)nc(N)c2cc1OC (stereo in doubt; 14) | – |
| 6.07 | 5.04 | COc1cc2nc(NC3CCCCC3NC(=O)c3ccco3)nc(N)c2cc1OC (trans isomer) [listing 1 of 2 here] | – |
